{"source": "patent US9676760B2", "about": "“Fused heterocyclic compounds as ion channel modulators” (Gilead Sciences, Inc., priority 2011, dated 2017)", "key": {"[1]": {"target": "T1, wild-type human cardiac sodium channel, hNav1.5 (Homo sapiens, UniProt Q14524)", "T1 sequence (Q14524 whole entry)": "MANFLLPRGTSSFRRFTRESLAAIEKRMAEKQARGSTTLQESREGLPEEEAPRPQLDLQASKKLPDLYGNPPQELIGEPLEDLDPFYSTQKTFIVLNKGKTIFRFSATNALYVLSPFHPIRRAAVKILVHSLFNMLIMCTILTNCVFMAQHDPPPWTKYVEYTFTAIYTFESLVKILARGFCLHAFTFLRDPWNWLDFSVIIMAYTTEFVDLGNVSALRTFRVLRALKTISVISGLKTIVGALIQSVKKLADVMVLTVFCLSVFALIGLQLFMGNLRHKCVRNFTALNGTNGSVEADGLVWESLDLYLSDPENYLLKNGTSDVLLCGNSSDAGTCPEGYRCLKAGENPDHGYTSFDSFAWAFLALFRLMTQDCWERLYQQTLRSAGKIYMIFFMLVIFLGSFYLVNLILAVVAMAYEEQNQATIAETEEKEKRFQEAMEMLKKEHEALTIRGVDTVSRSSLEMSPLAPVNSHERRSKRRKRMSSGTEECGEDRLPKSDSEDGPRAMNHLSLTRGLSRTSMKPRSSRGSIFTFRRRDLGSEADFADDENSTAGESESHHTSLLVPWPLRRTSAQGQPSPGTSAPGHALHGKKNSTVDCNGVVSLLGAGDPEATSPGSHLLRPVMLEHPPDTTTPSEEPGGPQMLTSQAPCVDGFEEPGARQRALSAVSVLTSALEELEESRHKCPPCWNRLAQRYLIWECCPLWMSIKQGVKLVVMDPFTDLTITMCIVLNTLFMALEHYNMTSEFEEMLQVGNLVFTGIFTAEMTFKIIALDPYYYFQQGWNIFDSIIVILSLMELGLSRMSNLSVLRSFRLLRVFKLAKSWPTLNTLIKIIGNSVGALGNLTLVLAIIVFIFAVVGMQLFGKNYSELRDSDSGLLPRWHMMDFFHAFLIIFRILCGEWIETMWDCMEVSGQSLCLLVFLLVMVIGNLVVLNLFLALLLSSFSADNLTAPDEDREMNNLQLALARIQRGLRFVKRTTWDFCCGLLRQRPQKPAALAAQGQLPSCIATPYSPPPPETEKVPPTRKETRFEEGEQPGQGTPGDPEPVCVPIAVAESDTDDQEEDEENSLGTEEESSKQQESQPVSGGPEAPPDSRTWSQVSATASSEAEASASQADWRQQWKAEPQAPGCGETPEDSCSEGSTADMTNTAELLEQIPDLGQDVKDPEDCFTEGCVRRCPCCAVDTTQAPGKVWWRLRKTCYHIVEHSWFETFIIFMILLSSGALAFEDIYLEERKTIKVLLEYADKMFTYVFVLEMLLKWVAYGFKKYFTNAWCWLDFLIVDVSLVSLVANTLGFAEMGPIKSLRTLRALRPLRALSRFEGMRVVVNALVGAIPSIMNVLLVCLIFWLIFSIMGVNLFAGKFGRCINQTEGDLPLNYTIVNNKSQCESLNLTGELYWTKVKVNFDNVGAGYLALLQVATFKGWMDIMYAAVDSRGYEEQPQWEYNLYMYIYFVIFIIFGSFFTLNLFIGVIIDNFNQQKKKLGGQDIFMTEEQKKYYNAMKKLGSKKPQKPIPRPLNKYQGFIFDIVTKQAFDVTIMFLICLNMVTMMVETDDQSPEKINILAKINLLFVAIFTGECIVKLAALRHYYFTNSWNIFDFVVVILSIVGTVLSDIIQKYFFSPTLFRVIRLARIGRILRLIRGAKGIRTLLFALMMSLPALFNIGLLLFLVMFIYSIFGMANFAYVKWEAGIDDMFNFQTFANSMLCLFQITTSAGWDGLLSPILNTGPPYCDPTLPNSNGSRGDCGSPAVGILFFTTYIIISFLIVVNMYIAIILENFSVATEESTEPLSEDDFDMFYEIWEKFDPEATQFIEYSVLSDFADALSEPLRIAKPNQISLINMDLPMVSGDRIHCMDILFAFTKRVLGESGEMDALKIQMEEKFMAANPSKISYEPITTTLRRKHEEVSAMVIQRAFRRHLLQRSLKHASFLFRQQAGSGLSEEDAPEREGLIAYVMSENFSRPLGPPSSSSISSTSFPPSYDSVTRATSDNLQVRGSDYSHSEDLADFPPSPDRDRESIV", "experiment": "Late INa screening assay (QPatch whole cell patch clamp, HEK293)", "type": "cell-based", "how_it_was_run": "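HEK293 stably expressing hNav1.5 without beta subunits, recorded at 23-25° C. Late current was induced by 10 μM tefluthrin. Cells were depolarized from −120 mV to −20 mV for 250 ms at 0.1 Hz. Compounds were tested at 1 μM in extracellular solution, with baseline taken in 0Na-ECF; output is percent block of late INa.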"}, "[2]": {"target": "T1, wild-type human cardiac sodium channel, hNav1.5", "experiment": "Peak INa screening assay (tonic and use-dependent block)", "type": "cell-based", "details": "compound at 1 μM", "how_it_was_run": "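Whole-cell automated patch clamp (QPatch) at 23–25°C on HEK293 cells stably expressing hNav1.5 alpha subunit only, with CsF/CsCl pipette solution, pH 7.4. Compound at 1 μM in extracellular solution; bath Na+ could be cut to 20 mM with a nonpermeant cation. Tonic block measured at 0.1 Hz, use-dependent block at 3 Hz.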"}, "[3]": {"target": "hERG potassium channel (Homo sapiens, UniProt Q12809)", "sequence (Q12809 whole entry)": "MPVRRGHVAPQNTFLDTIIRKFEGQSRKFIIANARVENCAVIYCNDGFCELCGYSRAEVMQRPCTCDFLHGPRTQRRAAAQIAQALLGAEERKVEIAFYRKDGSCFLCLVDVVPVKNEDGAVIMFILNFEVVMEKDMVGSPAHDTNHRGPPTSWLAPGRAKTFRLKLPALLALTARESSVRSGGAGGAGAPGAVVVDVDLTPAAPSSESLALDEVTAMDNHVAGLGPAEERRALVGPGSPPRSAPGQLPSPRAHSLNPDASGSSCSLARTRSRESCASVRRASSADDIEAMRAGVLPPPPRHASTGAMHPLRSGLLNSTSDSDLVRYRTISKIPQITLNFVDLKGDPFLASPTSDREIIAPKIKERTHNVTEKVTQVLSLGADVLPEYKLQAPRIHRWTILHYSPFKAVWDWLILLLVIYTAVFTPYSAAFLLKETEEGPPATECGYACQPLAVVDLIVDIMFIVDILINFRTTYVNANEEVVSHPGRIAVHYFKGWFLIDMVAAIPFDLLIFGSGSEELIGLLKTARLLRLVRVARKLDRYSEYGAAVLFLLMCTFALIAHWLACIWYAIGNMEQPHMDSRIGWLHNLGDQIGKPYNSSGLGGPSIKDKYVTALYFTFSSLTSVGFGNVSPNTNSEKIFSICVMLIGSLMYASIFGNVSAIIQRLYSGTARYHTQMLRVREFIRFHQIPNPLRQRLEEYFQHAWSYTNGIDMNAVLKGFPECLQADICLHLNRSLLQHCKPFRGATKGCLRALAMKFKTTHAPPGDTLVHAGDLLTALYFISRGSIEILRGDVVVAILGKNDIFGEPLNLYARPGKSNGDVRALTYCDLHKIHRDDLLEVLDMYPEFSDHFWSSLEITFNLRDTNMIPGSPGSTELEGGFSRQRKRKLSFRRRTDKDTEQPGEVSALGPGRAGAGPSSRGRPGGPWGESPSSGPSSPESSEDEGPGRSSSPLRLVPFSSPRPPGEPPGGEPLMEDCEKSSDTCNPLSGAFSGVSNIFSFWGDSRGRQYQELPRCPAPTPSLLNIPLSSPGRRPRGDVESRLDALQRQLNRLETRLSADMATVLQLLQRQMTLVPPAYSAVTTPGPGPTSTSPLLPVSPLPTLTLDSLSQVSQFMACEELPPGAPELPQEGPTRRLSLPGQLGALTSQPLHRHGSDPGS", "experiment": "hERG screening assay (PatchXpress, CHO cells)", "type": "cell-based", "set-up": "hERG: unit not given here", "procedure": "Compounds were also tested for their effect to block the hERG K^+ channel.\nCompounds were screened to test their activity in blocking the hERG potassium channel at AVIVA Biosciences (San Deigo, Calif., USA). The hERG channel is heterologously expressed in a CHO (Chinese Hamster Ovary) cell line. Cells were maintained with standard tissue culture procedures and stable channel expression was maintained with 500 μg/mL G418 in the culture medium. Cells were harvested for testing on the PatchXpress 7000A automated patch clamp with Accumax (Innovative Cell Technologies, San Diego, Calif.) to isolate single cells.\nThe following solutions were used for electrophysiological recordings. The external solution contained: 2 mM CaCl2; 2 mM MgCl2; 4 mM KCl; 150 mM NaCl; 10 mM Glucose; 10 mM HEPES (pH 7.4 with 1M NaOH; osmolarity, ˜310 mOsm).\nhERG channels were activated when the voltage was first stepped to −50 mV for 300 ms from the −80 mV holding potential and then stepped to +20 mV for 5 seconds. At +20 mV the channels open and then largely inactivate, so the currents are relatively small. Upon returning to −50 mV from +20 mV, hERG currents transiently become much larger as inactivation is rapidly removed and then the channel closes. The first step to −50 mV for 300 ms was used as a baseline for measuring the peak amplitude during the step to −50 mV after channel activation. The peak tail current at −50 mV was measured both under control conditions and after addition of compound, each cell serving as its own control.\nAll compounds were prepared as 10 mM DMSO stocks in glass vials. Stock solutions were mixed by vigorous vortexing and sonication for about 2 minutes at room temperature. For testing, compounds were diluted in glass vials using an intermediate dilution step in pure DMSO and then further diluted to working concentrations in external solution. Dilutions were prepared no longer than 20 minutes before use.\nFor the electrophysiological recordings, after achieving the whole-cell configuration, cells were monitored for 90 seconds to assess stability and washed with external solution for 66 seconds. The voltage protocol described above was then applied to the cells every 12 seconds and throughout the whole procedure. Only cells with stable recording parameters and meeting specified health criteria were allowed to enter the compound addition procedure.\nExternal solution containing 0.1% DMSO (vehicle) was applied to the cells first to establish the control peak current amplitude. After allowing the current to stabilize for 3 to 5 minutes, 1 μM and then 10 μM test compounds were applied. Each compound concentration was added 4 times and cells were kept in test solution until the effect of the compound reached steady state or for a maximum of 12 minutes. […] Washout in the external solution compartment was performed until the recovery of the current reached steady state."}, "[4]": {"system": "Female New Zealand rabbits", "experiment": "Ischemia-induced ST segment elevation in anesthetized rabbits", "type": "in vivo, rabbit", "procedure": "This study was undertaken to determine the anti-ischemic effects of compounds of the present disclosure in an in vivo rabbit model.\nFemale New Zealand rabbits (3.0-4.0 kg) were purchased from Western Oregon Rabbitry. Animals were housed on a 12-h light and dark cycle and received standard laboratory chow and water. All experiments were performed in accordance with the Guide for the Care and Use of Laboratory Animals published by The National Research Council and with the experimental protocol approved by the Institutional Animal Care Committee of Gilead Sciences, Inc.\nRabbits were anesthetized with ketamine (35 mg/kg) and xylazine (5 mg/kg) intramuscular injection (im). A tracheotomy was performed and the trachea was intubated with an endotracheal tube. The animal was ventilated with room air supplemented with oxygen using a pressure control animal ventilator (Kent Scientific Corp., Torrington, Conn.) at a respiratory rate of 40 strokes/min and peak inspiration pressure of 10 mmH2O, which was adjusted to keep blood gases and pH within the physiological range (iSTAT clinic analyzer, Heska Corp.; Waukesha, Wis.). The left femoral artery was cannulated for the measurement of blood pressure (BP). Blood samples were also withdrawn from femoral artery. The right external jugular vein was cannulated for drug/vehicle administration. Needle electrodes were inserted subcutaneously into the limbs for recording of the surface electrocardiogram (ECG). The heart was exposed via an incision in the 4th intercostal space (4th and/or 5th ribs were cut for a clear surgical vision). The chest was opened and a pericardial cradle was formed using 4 retractors. A coronary artery occluder, comprised of a snare made of 5 cm PE-10 tubing with a 6-0 Prolene polypropylene suture in it, was placed loosely around the left anterior descending artery (LAD) at its origin. Two unipolar electrodes, made with teflon coated silver wire attached to a small patch of filter paper, were attached on the surface of the ischemic and normal regions of the left ventricle to record epicardial electrocardiogram. Reference electrodes were placed in the open incision of the neck. The body temperature of the animal was monitored via a rectal thermometer and maintained at 37-40° C. by adjusting the surface temperature of the surgical table. Regional ischemia (15 min) was induced by ligating the LAD followed by 15 min of reperfusion caused by releasing the ligation. The heart was excised at the end of the experiment and the LAD was re-ligated. The ischemic area was visualized by perfusing the heart with 1% Evans blue in saline and calculated as a percentage of total ventricular weight. Rabbits with ischemic area less than 10% or larger than 25% were excluded from the analysis. Animals were randomly assigned to vehicle and test compound groups. Test compounds was dissolved in 5% NMP, 30% PG, 45% PEG 400 and 20% de-ionized water (dH2O). Test compound was given as an iv bolus at 0.1, 0.2 and 0.4 mg/kg. After 30 min of dosing, the heart was subjected to 15 min of ischemia followed by 15 min of reperfusion."}, "[5]": {"target": "T2, hNav 1.1 sodium channel isoform (Homo sapiens, UniProt P35498)", "T2 construct": "expressed in transfected cells; host or cells: HEK293, transient transfection (Qiagen Superfect)", "experiment": "hNav1.1 whole-cell voltage-clamp assay", "type": "cell-based", "details": "% Inhibition at 1 uM; use-dependent block, 10 Hz; read-out: NAV1.1* UDB-10HZ"}, "[6]": {"target": "T3, hNav 1.2 sodium channel isoform (Homo sapiens, UniProt Q99250)", "T3 construct": "expressed in transfected cells", "T3 sequence (Q99250 whole entry, canonical isoform)": "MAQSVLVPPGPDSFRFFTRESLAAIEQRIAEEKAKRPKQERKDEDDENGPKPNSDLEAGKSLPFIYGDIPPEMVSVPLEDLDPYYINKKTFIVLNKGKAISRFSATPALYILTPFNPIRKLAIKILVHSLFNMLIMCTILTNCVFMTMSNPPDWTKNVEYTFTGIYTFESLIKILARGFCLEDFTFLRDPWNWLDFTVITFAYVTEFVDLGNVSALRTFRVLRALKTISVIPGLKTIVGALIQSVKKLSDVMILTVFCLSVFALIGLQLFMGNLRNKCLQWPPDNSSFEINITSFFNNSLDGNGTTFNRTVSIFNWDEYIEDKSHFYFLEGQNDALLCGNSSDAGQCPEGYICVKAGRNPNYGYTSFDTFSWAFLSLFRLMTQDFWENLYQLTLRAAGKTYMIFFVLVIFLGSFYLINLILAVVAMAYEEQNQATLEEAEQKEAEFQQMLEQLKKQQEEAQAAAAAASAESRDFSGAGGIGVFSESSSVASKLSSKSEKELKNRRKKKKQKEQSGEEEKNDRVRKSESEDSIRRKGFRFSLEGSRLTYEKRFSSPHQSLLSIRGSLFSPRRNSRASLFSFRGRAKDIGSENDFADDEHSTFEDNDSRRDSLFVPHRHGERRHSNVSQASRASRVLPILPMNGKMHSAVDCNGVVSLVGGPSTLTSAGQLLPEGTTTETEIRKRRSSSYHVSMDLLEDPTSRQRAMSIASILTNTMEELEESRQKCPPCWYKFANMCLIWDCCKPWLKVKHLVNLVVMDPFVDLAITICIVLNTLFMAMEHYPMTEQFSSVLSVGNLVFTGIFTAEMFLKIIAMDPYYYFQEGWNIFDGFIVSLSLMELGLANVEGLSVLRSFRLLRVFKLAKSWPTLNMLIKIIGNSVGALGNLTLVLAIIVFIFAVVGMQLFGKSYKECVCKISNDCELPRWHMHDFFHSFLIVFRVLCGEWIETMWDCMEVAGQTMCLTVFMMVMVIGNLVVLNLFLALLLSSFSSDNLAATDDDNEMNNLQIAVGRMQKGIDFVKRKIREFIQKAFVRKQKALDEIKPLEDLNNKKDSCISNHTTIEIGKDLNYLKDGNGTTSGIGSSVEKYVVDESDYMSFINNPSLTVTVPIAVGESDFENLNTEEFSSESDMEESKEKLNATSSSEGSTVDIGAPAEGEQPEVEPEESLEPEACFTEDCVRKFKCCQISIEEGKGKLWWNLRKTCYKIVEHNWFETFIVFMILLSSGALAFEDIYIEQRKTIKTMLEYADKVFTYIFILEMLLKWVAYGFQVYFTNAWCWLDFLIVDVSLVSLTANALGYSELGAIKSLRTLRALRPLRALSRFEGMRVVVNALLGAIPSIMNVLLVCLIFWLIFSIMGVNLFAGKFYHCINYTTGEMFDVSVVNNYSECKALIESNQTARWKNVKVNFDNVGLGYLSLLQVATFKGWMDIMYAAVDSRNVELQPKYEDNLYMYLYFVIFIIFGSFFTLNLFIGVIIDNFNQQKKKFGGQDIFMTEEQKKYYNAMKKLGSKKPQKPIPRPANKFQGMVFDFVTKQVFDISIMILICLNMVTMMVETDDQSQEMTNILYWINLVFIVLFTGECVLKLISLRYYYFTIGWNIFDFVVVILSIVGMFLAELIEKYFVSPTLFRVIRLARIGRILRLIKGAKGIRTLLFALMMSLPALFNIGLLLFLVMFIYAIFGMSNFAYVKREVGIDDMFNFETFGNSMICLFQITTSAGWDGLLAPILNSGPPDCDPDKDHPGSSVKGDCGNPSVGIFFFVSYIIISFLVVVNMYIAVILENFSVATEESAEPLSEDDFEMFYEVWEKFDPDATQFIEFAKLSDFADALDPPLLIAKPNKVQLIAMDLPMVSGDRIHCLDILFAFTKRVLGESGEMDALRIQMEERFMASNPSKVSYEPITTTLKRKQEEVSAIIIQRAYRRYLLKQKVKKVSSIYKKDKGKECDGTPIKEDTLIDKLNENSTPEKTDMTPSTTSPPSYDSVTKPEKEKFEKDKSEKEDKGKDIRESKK", "experiment": "hNav1.2 whole-cell voltage-clamp assay", "type": "cell-based", "details": "use-dependent block, 10 Hz, read-out: NAV1.2* UDB-10HZ", "procedure": "Wild-type (WT) cDNA stably transfected in Chinese hamster ovary (CHO) cells is used to record INa. Unless otherwise noted, all reagents are purchased from Sigma-Aldrich (St Louis, Mo., U.S.A.).\nWhole-cell voltage-clamp recordings are used to measure the biophysical properties of WT. […] Cells are allowed to stabilize for 10 min after establishment of the whole-cell configuration before current is measured. Series resistance is compensated 90% to assure that the command potential is reached within microseconds with a voltage error<2 mV. Leak currents are subtracted by using an online P/4 procedure and all currents are low-pass Bessel filtered at 5 kHz and digitized at 50 kHz.\nFor clarity, representative ramp currents are low pass filtered off-line at 50 Hz. Specific voltage-clamp protocols assessing channel activation, fast inactivation and availability during repetitive stimulation are used. Results are presented as mean±SEM.\nTonic block of peak current is measured using a step to −10 mV (20 ms) from a holding potential of −120 mV (0.2 Hz). Use-dependent block of peak current is measured during pulse number 300 of a pulse train (−10 mV, 5 ms, 300 pulses, 10 Hz or 25 Hz) from a holding potential of −120 mV. Two sequential pulse train stimulations are averaged to obtain mean current traces for each recording condition, which are then used for offline subtraction and analysis.\nFor use-dependent studies, cells are stimulated with depolarizing pulse trains (−10 mV, 5 ms, 300 pulses, 10 and 25 Hz) from a holding potential of −120 mV. Currents are then normalized to the peak current recorded in response to the first pulse in each frequency train. For tonic block studies, peak current is evaluated in response to a 20 ms depolarization to −10 mV (0.2 Hz). […] Results are presented as mean±SEM.\nA stock solution of 10 mM compound of Formula I is prepared in 0.1 M HCl or DMSO. […] The final DMSO concentration was kept at 0.1% in all solutions. Direct application of the perfusion solution to the clamped cell is achieved using the Perfusion Pencil system (Automate, Berkeley, Calif.). Direct cell perfusion is driven by gravity at a flow rate of 350 μL/min using a 250 micron tip. This system sequesters the clamped cell within a perfusion stream and enables complete solution exchange within 1 second. The clamped cell is perfused continuously starting immediately after establishing the whole-cell configuration. Control currents are measured during control solution perfusion.\nSolutions are perfused for three minutes prior to current recordings to allow equilibrium (tonic) drug block. Tonic block of peak currents is measured from this steady-state condition. Three sequential current traces are averaged to obtain a mean current for each recording. The mean current traces are utilized for offline analysis. Use-dependent block of peak current is measured during pulse number 300 of the pulse train, (−10 mV, 5 ms, 300 pulses, 10 Hz) from a holding potential of −120 mV."}, "[7]": {"details": "HEK293, % Inhibition at 1 uM, read-out: Late INa*"}, "[8]": {"details": "HEK293, percent block of late INa, compound at 1 μM, 10 μM Tefluthrin, read-out: Late INa 1 μM"}, "[9]": {"details": "tonic block of peak INa, 0.1 Hz, read-out: Peak TB 1 μM"}, "[10]": {"details": "use-dependent block of peak INa, 3 Hz, read-out: Peak UDB 1 μM"}}, "data": [{"smiles": "Cc1cccc(CN2CCOc3ccc(-c4ccc(OC(F)(F)F)cc4)cc3C2=O)n1", "note": "[II-17, 4-((6-methylpyridin-2-yl)methyl)-7-(4-(trifluoromethoxy)phenyl)-3,4-dihydrobenzo[f][1,4]oxazepin-5(2H)-one]", "values": [{"measurement": "inhibition at 1 µM", "setting": "[1]; [7]", "value": 59, "unit": "%"}, {"measurement": "inhibition at 1 µM", "setting": "[1]; [8]", "value": 59, "unit": "%"}, {"measurement": "inhibition at 1 µM", "setting": "[2]; [9]", "value": 47, "unit": "%"}, {"measurement": "inhibition at 1 µM", "setting": "[2]; [10]", "value": 46, "unit": "%"}, {"measurement": "hERG", "setting": "[3]", "value": "<10"}]}, {"smiles": "O=C1c2cc(-c3ccc(C(F)(F)F)cc3)ccc2OCCN1Cc1ncccn1", "note": "[II-61, 4-(pyrimidin-2-ylmethyl)-7-(4-(trifluoromethyl)phenyl)-3,4-dihydrobenzo[f][1,4]oxazepin-5(2H)-one]", "values": [{"measurement": "area under curve (AUC) for the ST segment height reduced (vs. control)", "setting": "[4]; 0.28 μM plasma concentration, iv bolus, 15 min ischemia", "value": 38, "unit": "%"}, {"measurement": "effect on blood pressure (BP), heart rate (HR) and ECG intervals prior to the ischemia", "setting": "[4]; at the plasma concentration levels studied", "value": "no significant effect"}, {"measurement": "ischemia-induced ST elevation", "setting": "[4]; iv bolus 30 min before 15 min ischemia", "value": "dose-dependently prevented"}, {"measurement": "hERG", "setting": "[3]", "value": "<10"}]}, {"smiles": "CCc1ccc(-c2ccc3c(c2)C(=O)N(Cc2ncccn2)CCO3)cc1", "note": "[II-91, 7-(4-ethylphenyl)-4-(pyrimidin-2-ylmethyl)-3,4-dihydrobenzo[f][1,4]oxazepin-5(2H)-one]", "values": [{"measurement": "inhibition at 1 µM", "setting": "[1]; [7]", "value": 54, "unit": "%"}, {"measurement": "inhibition at 1 µM", "setting": "[1]; [8]", "value": 54, "unit": "%"}, {"measurement": "inhibition at 1 µM", "setting": "[5]", "value": -9, "unit": "%"}, {"measurement": "inhibition at 1 µM", "setting": "[2]; [9]", "value": 8, "unit": "%"}, {"measurement": "inhibition at 1 µM", "setting": "[2]; [10]", "value": 11, "unit": "%"}, {"measurement": "inhibition at 1 µM", "setting": "[6]", "value": -3, "unit": "%"}]}, {"smiles": "Cc1ccnc(CN2CCOc3ccc(-c4ccc(OC(F)(F)F)cc4)cc3C2=O)n1", "note": "[II-138, 4-((4-methylpyrimidin-2-yl)methyl)-7-(4-(trifluoromethoxy)phenyl)-3,4-dihydrobenzo[f][1,4]oxazepin-5(2H)-one]", "values": [{"measurement": "inhibition at 1 µM", "setting": "[1]; [7]", "value": 47, "unit": "%"}, {"measurement": "inhibition at 1 µM", "setting": "[1]; [8]", "value": 47, "unit": "%"}, {"measurement": "inhibition at 1 µM", "setting": "[5]", "value": 21, "unit": "%"}, {"measurement": "inhibition at 1 µM", "setting": "[2]; [9]", "value": 16, "unit": "%"}, {"measurement": "inhibition at 1 µM", "setting": "[2]; [10]", "value": 23, "unit": "%"}, {"measurement": "inhibition at 1 µM", "setting": "[6]", "value": 40, "unit": "%"}]}, {"smiles": "O=C1c2cc(-c3ccc(OC(F)(F)F)cc3)ncc2OCCN1Cc1ccccc1", "note": "[XII-1, 4-benzyl-7-(4-(trifluoromethoxy)phenyl)-3,4-dihydropyrido[4,3-f][1,4]oxazepin-5(2H)-one]", "values": [{"measurement": "inhibition at 1 µM", "setting": "[1]; [7]", "value": 53, "unit": "%"}, {"measurement": "inhibition at 1 µM", "setting": "[1]; [8]", "value": 53, "unit": "%"}, {"measurement": "inhibition at 1 µM", "setting": "[5]", "value": -1, "unit": "%"}, {"measurement": "inhibition at 1 µM", "setting": "[2]; [9]", "value": 25, "unit": "%"}, {"measurement": "inhibition at 1 µM", "setting": "[2]; [10]", "value": 21, "unit": "%"}, {"measurement": "inhibition at 1 µM", "setting": "[6]", "value": -4, "unit": "%"}]}]}
